target: T1, Cholecystokinin receptor type A (Cavia porcellus, UniProt Q63931); test: In vitro binding affinity for the cholecystokinin type A receptor in guinea pig pancreas assayed using [125I]BH-CCK-8 as radioligand
T1 sequence (Q63931 whole entry): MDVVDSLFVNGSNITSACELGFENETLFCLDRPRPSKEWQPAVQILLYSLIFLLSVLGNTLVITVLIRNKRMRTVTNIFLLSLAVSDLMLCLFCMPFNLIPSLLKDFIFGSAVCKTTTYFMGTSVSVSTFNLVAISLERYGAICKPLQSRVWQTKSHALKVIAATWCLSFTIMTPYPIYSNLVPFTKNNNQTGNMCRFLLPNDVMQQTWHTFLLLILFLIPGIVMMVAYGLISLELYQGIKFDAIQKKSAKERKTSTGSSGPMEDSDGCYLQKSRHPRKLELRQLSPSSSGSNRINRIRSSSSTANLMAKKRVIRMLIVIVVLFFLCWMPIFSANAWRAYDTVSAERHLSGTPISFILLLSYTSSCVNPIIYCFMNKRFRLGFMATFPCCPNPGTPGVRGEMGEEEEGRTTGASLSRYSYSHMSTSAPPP

`Cc1ccc([C@H]2C[C@@H](NC(=O)Nc3cccc(Cl)c3)C(=O)N(CC(=O)NC(C)(C)C)c3cc(C)ccc32)cc1` and `Cc1ccc2c(c1)N(CC(=O)NC(C)(C)C)C(=O)[C@@H](NC(=O)Nc1cccc(Cl)c1)C[C@H]2c1ccccc1` are within 1.5-fold of each other in IC50: 417 nM for the first, 363 nM for the second.

Going from `CCc1ccc2c(c1)N(CC(=O)NC(C)(C)C)C(=O)[C@H](NC(=O)Nc1cccc(Cl)c1)C[C@@H]2c1ccccc1` to `Cc1ccc2c(c1)N(CC(=O)NC(C)(C)C)C(=O)[C@H](NC(=O)Nc1cccc(Cl)c1)C[C@@H]2c1ccccc1` (stereo in doubt; 4), the IC50 rises from 71 nM to 176 nM (2.5-fold).

Compared with `CC(C)(C)NC(=O)CN1C(=O)[C@H](NC(=O)Nc2cccc(Cl)c2)C[C@H](C2CCCCC2)c2ccccc21`, `CC(C)(C)NC(=O)CN1C(=O)[C@@H](NC(=O)Nc2cccc(Cl)c2)C[C@H](C2CCCCC2)c2ccccc21` is higher in IC50: 171 nM for the first, > 10000 nM for the second. The first is the more potent here.

Compared with `Cc1ccc2c(c1)N(CC(=O)NC(C)(C)C)C(=O)[C@H](NC(=O)Nc1cccc(Cl)c1)C[C@@H]2Cc1ccccc1`, `Cc1ccc2c(c1)N(CC(=O)NC(C)(C)C)C(=O)[C@H](NC(=O)Nc1cccc(Cl)c1)C[C@@H]2c1ccccc1` (stereo in doubt; 43a) is lower in IC50: > 10000 nM for the first, 130 nM for the second. The second is the more potent here.

Going from `CC1(NC(=O)CN2C(=O)[C@H](NC(=O)Nc3cccc(Cl)c3)C[C@H](c3ccccc3)c3ccccc32)CCCCC1` to `CC(C)(C)NC(=O)CN1C(=O)[C@H](NC(=O)Nc2cccc(Cl)c2)C[C@H](c2ccccc2)c2ccccc21`, the IC50 falls from 467 nM to 144 nM (3.2-fold).

First: CCC(C)(C)NC(=O)CN1C(=O)[C@H](NC(=O)Nc2cccc(Cl)c2)C[C@H](c2ccccc2)c2ccccc21
Second: CN(C(=O)CN1C(=O)[C@H](NC(=O)Nc2cccc(Cl)c2)C[C@H](c2ccccc2)c2ccccc21)C(C)(C)C
The IC50 of the first is 34-fold higher: 144 nM for the first, 4.2 nM for the second.

First: CC(C)(C)NC(=O)CN1C(=O)[C@H](NC(=O)Nc2cccc(Cl)c2)C[C@H](c2cccc(Cl)c2)c2ccccc21
Second: CC(C)(C)NC(=O)CN1C(=O)[C@H](NC(=O)Nc2cccc(Cl)c2)C[C@H](c2ccccc2)c2ccc(Cl)cc21
The IC50 of the first is 4.6-fold lower: 69 nM for the first, 320 nM for the second. The first is the more potent here.

First: Cc1cccc2c1N(CC(=O)NC(C)(C)C)C(=O)[C@H](NC(=O)Nc1cccc(Cl)c1)C[C@@H]2c1ccccc1
Second: Cc1ccc2c(c1)[C@@H](c1ccccc1)C[C@@H](NC(=O)Nc1cccc(Cl)c1)C(=O)N2CC(=O)NC(C)(C)C
The IC50 of the first is 4.1-fold lower: 77 nM for the first, 317 nM for the second.

Compared with `Cc1cccc(NC(=O)N[C@@H]2C[C@H](c3ccccc3)c3ccccc3N(CC(=O)NC(C)(C)C)C2=O)c1`, `COc1cccc(NC(=O)N[C@@H]2C[C@H](c3ccccc3)c3ccccc3N(CC(=O)NC(C)(C)C)C2=O)c1` is 1.7-fold lower in IC50: 288 nM for the first, 166 nM for the second. The second is the more potent here.

Compared with `Cc1ccc2c(c1)N(CC(=O)NC(C)(C)C)C(=O)[C@H](NC(=O)Nc1cccc(Cl)c1)C[C@@H]2C(C)C`, `Cc1ccc2c(c1)N(CC(=O)NC(C)(C)C)C(=O)[C@H](NC(=O)Nc1cccc(Cl)c1)C[C@@H]2C1CCCCC1` is 7.8-fold higher in IC50: 72 nM for the first, 560 nM for the second.

`Cc1ccc2c(c1)N(CC(=O)OC(C)(C)C)C(=O)[C@H](NC(=O)Nc1cccc(Cl)c1)C[C@@H]2c1ccccc1` and `Cc1cccc(NC(=O)N[C@@H]2C[C@H](c3ccccc3)c3ccccc3N(CC(=O)OC(C)(C)C)C2=O)c1` are within 1.5-fold of each other in IC50: 34 nM for the first, 50 nM for the second.

Compared with `Cc1ccc(NC(=O)N[C@@H]2C[C@H](c3ccccc3)c3ccccc3N(CC(=O)NC(C)(C)C)C2=O)cc1`, `CC(C)(C)NC(=O)CN1C(=O)[C@H](NC(=O)Nc2ccc(Cl)cc2)C[C@H](c2ccccc2)c2ccccc21` is 2.9-fold lower in IC50: 1140 nM for the first, 399 nM for the second. The second is the more potent here.

First: CC(C)(C)NC(=O)CN1C(=O)[C@H](NC(=O)Nc2cccc(Cl)c2)C[C@H](c2ccccc2)c2cc(Cl)ccc21
Second: CC(C)(NC(=O)CN1C(=O)[C@H](NC(=O)Nc2cccc(Cl)c2)C[C@H](c2ccccc2)c2ccccc21)c1ccccc1
The IC50 of the first is 1.6-fold lower: 287 nM for the first, 460 nM for the second. The first is the more potent here.

Going from `Cc1ccccc1NC(=O)N[C@@H]1C[C@H](c2ccccc2)c2ccccc2N(CC(=O)NC(C)(C)C)C1=O` to `Cc1cccc(NC(=O)N[C@@H]2N=C(c3ccccc3)c3ccccc3N(C)C2=O)c1` [L-365260], the IC50 falls from 1470 nM to 86 nM (17-fold).
